Values of other authors, collected in US20250041461A1, “[177LU] LUTETIUM-PSMA I&T COMPOSITION AND DOSIMETRY, KIT, METHOD OF MAKING, AND METHOD OF USING THEREOF” (Curium US LLC, priority 2023, published 2025).
Where two headings read alike, the source gives them in different places.

Legend:
prostate cancer = conditions: in vivo; cited from earlier work
[1] = cited from earlier work
[2] = cited from earlier work; for Absorbed Dose, Mean: Pluvicto; for dose estimate, Mean: Pluvicto Spc

For O=C([O-])CN1CCN(CC(=O)[O-])CCN(CC(=O)NCC2CCC(C(=O)N[C@@H](Cc3ccc4ccccc4c3)C(=O)NCCCC[C@H](NC(=O)N[C@@H](CCC(=O)O)C(=O)O)C(=O)O)CC2)CCN(CC(=O)[O-])CC1.[177Lu+3] (some centres unmarked) [^177Lu-PSMA-617], the adverse effects (prostate cancer) is given as “mainly transient adverse effects”, the “mean renal absorbed dose” value ([1]; VISION trial, 29 patients) is given as 0.43±0.16 Gy/GBq and the “mean renal absorbed dose” value ([1]; Violet et al.) is given as 0.39±0.16 Gy/GBq. The “projected cumulative absorbed dose to the kidneys at 6 cycles” value ([1]; Vision trial) was 19±7.3 Gy, the renal toxicities ([1]; Vision trial) was “no renal toxicities were observed” and the “Absorbed Dose, Mean” value ([2]; Bladder) was 0.32 Gy/GBq. For the same compound, the “dose estimate, Mean” value ([2]; Heart Wall) was 0.17 Gy/GBq, the “Absorbed Dose, Mean” value ([2]; Heart) was 0.17 Gy/GBq and the “dose estimate, Mean” value ([2]; Kidneys) was 0.43 Gy/GBq. For the same compound, the “Absorbed Dose, Mean” value ([2]; Kidneys) was 0.43 Gy/GBq, the “Absorbed Dose, Mean” value ([2]; Lacrimal Glands) was 2.1 Gy/GBq and the “dose estimate, Mean” value ([2]; Lacrimal gland) was 2.1 Gy/GBq. The “Absorbed Dose, Mean” value ([2]; Left Colon) was 0.58 Gy/GBq, the “dose estimate, Mean” value ([2]; Left colon) was 0.58 Gy/GBq and the “dose estimate, Mean” value ([2]; Liver) was 0.09 Gy/GBq. The “Absorbed Dose, Mean” value ([2]; Liver) was 0.090 Gy/GBq, the “dose estimate, Mean” value ([2]; Rectum) was 0.56 Gy/GBq and the “Absorbed Dose, Mean” value ([2]; Right Colon) was 0.32 Gy/GBq. The “dose estimate, Mean” value ([2]; Right colon) was 0.32 Gy/GBq, the “Absorbed Dose, Mean” value ([2]; Salivary Glands) was 0.63 Gy/GBq and the “dose estimate, Mean” value ([2]; Salivary glands) was 0.63 Gy/GBq. The “dose estimate, Mean” value ([2]; Spleen) was 0.07 Gy/GBq, the “Absorbed Dose, Mean” value ([2]; Spleen) was 0.067 Gy/GBq and the “dose estimate, Mean” value ([2]; Thyroid) was 0.26 Gy/GBq. The “Absorbed Dose, Mean” value ([2]; Thyroid) was 0.26 Gy/GBq and the “dose estimate, Mean” value ([2]; Urinary bladder wall) was 0.32 Gy/GBq.
